Here are results for seven molecules from ChEMBL document CHEMBL1201862, “PubChem BioAssay data set” (2004).

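Compound exposure: 48 hours, 5 concentrations, 96-well plates. Here, GI50 denotes the concentration required for 50% inhibition of growth.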 The source made the active and inactive calls. No stated cut-off is given here; in the data, active = GI50 up to about 1.1 µM and inactive = higher. A value given as a limit tells only on which side of the number the result lay.

Test systems include SK-MEL-2; MOLT-4; NCI/ADR-RES; EKVX; MDA-MB-435; SN12C; HCT-15; BT-549; SF-539; NCI-H522; K562; U-251; UO-31; RPMI-8226; HCC 2998; UACC-62; HL-60; UACC-257; OVCAR-4; SK-MEL-5.
Experiment in all cases: NCI-60 cell line screen, 48 h

On to `O=C1Nc2ccccc2/C1=N/Nc1c(F)c(F)c(F)c(F)c1F`, for which the GI50 is > 100 µM (inactive) with SK-MEL-2; 12 µM (inactive) with MOLT-4; 70.1 µM (inactive) in the experiment with NCI/ADR-RES; 35 µM (inactive) with EKVX; > 100 µM (inactive) with MDA-MB-435; 36.5 µM (inactive) with SN12C. The GI50 in the experiment with HCT-15 was 29.9 µM; in the experiment with BT-549 it was > 100 µM (inactive); in the experiment with SF-539 it was 48.4 µM (inactive); in the experiment with NCI-H522 it was 14.4 µM (inactive); in the experiment with K562, 8.63 µM (inactive); with U-251 it was > 100 µM (inactive). Besides, the GI50 was 17.1 µM (inactive) with UO-31; 3.83 µM (inactive) in the experiment on RPMI-8226; > 100 µM (inactive) with HCC 2998; > 100 µM (inactive) in the experiment with UACC-62; 2.77 µM (inactive) in the experiment with HL-60; 27.2 µM (inactive) with UACC-257. The GI50 with OVCAR-4 was 82 µM (inactive); with SK-MEL-5 it was 58.5 µM (inactive).

For `CC1OC(OCC2OC(Oc3ccc(C4CC(=O)c5c(O)cc(O)cc5O4)cc3O)C(O)C(O)C2O)C(O)C(O)C1O` (stereo not given), the GI50 with SK-MEL-2, in the experiment on MOLT-4, with NCI/ADR-RES, in the experiment with EKVX, with MDA-MB-435 and in the experiment on SN12C was > 100 µM (inactive) throughout. In addition, the GI50 with HCT-15 was greater than 100 µM; in the experiment on BT-549 it was > 100 µM (inactive); with SF-539, > 100 µM (inactive); with NCI-H522, > 100 µM (inactive); in the experiment on K562, > 100 µM (inactive); in the experiment on U-251 it was > 100 µM (inactive). For the same molecule, the GI50 in the experiment with UO-31, in the experiment on RPMI-8226, in the experiment with HCC 2998, in the experiment with UACC-62, in the experiment on HL-60 and in the experiment on UACC-257 was > 100 µM (inactive) in each case. Moreover, the GI50 in the experiment on OVCAR-4 and with SK-MEL-5 was > 100 µM (inactive) each time.

`COc1cc(C2c3cc4c(cc3OC(O)C2C)OCO4)cc(OC)c1O` (stereo not given): the GI50 in the experiment with SK-MEL-2 is 10.3 µM (inactive); with MOLT-4, 4.45 µM (inactive); with NCI/ADR-RES, 3.49 µM (inactive); in the experiment with EKVX, 19.2 µM (inactive); in the experiment on MDA-MB-435, 1.95 µM (inactive); in the experiment with SN12C, 11.8 µM (inactive). For the same molecule, the GI50 is 5.43 µM with HCT-15; 7.26 µM (inactive) with BT-549; 6.28 µM (inactive) with SF-539; 2.12 µM (inactive) in the experiment with NCI-H522; 3.04 µM (inactive) with K562; 7.16 µM (inactive) with U-251. Also, the GI50 with UO-31 is 21.3 µM (inactive); in the experiment with RPMI-8226, 7.4 µM (inactive); in the experiment with HCC 2998, 10.9 µM (inactive); in the experiment on UACC-62, 3.49 µM (inactive); with HL-60, 2.92 µM (inactive); in the experiment on UACC-257 it was 48.5 µM (inactive). Also, the GI50 is 35.1 µM (inactive) with OVCAR-4 and 4.66 µM (inactive) in the experiment on SK-MEL-5.

Take `CCCCCCCCCCCNC=O`: the GI50 in the experiment on SK-MEL-2 is 24.8 µM (inactive); in the experiment on MOLT-4, 22.6 µM (inactive); in the experiment on NCI/ADR-RES, 30.6 µM (inactive); with EKVX, 52.8 µM (inactive); with MDA-MB-435, 73.8 µM (inactive); with SN12C, 63.4 µM (inactive). Besides, the GI50 is 27.4 µM in the experiment with HCT-15; 21.8 µM (inactive) with BT-549; > 100 µM (inactive) in the experiment with SF-539; 24.5 µM (inactive) in the experiment on NCI-H522; 23.7 µM (inactive) with K562; 25.9 µM (inactive) in the experiment on U-251. Besides, the GI50 was 33.8 µM (inactive) in the experiment on UO-31; 28.1 µM (inactive) with RPMI-8226; 24.4 µM (inactive) with HCC 2998; 51.2 µM (inactive) in the experiment on UACC-62; 15.1 µM (inactive) in the experiment on HL-60; 32.4 µM (inactive) in the experiment with UACC-257. The GI50 in the experiment with OVCAR-4 was 45.3 µM (inactive); in the experiment with SK-MEL-5, 36.9 µM (inactive).

`CC(C)(C)OC(=O)c1ccc(NCC2=CC(=O)C=CC2=O)cc1`: the GI50 with SK-MEL-2 is 16.7 µM (inactive); in the experiment on MOLT-4, 1.97 µM (inactive); in the experiment on NCI/ADR-RES, 8.93 µM (inactive); in the experiment on EKVX it was 14.8 µM (inactive); in the experiment with MDA-MB-435, 12.9 µM (inactive); in the experiment with SN12C it was 11.4 µM (inactive). For the same molecule, the GI50 was 7.18 µM in the experiment with HCT-15; 11.6 µM (inactive) with BT-549; 5.52 µM (inactive) in the experiment with SF-539; 1.63 µM (inactive) with NCI-H522; 2.75 µM (inactive) in the experiment on K562; 14 µM (inactive) with U-251. In addition, the GI50 in the experiment with UO-31 is 7.11 µM (inactive); in the experiment on RPMI-8226, 2.48 µM (inactive); in the experiment with HCC 2998 it was 20 µM (inactive); in the experiment on UACC-62, 13.2 µM (inactive); in the experiment with HL-60, 1.03 µM (active); with UACC-257, 12.3 µM (inactive). Further, the GI50 was 8.85 µM (inactive) in the experiment with OVCAR-4 and 14.4 µM (inactive) in the experiment with SK-MEL-5.

In the case of `O=C(NN1CCCCC1)c1cc2cc(CCl)ccc2oc1=O`, the GI50 with SK-MEL-2 is 11.9 µM (inactive); in the experiment on MOLT-4 it was 22.2 µM (inactive); in the experiment on NCI/ADR-RES, 23.1 µM (inactive); in the experiment with EKVX, 14.2 µM (inactive); in the experiment with MDA-MB-435, 18.5 µM (inactive); with SN12C it was 18.4 µM (inactive). The GI50 in the experiment with HCT-15 is 17.7 µM; with BT-549 it was 19.3 µM (inactive); in the experiment on SF-539, 27.4 µM (inactive); in the experiment with NCI-H522, 8.75 µM (inactive); in the experiment on K562 it was 16.7 µM (inactive); in the experiment with U-251, 16.9 µM (inactive). Moreover, the GI50 is 18.5 µM (inactive) in the experiment with UO-31; 24 µM (inactive) in the experiment with RPMI-8226; 13.9 µM (inactive) with HCC 2998; 27.7 µM (inactive) in the experiment with UACC-62; 16.5 µM (inactive) with HL-60; 21.6 µM (inactive) with UACC-257. The GI50 with OVCAR-4 was 18.4 µM (inactive); in the experiment on SK-MEL-5 it was 17.7 µM (inactive).

Take `O=[N+]([O-])c1cc2oc(COc3ccccc3)nc2cc1Cl`: the GI50 in the experiment with SK-MEL-2 is 22.1 µM (inactive); in the experiment on MOLT-4 it was 22.2 µM (inactive); in the experiment with NCI/ADR-RES, 21.4 µM (inactive); in the experiment with EKVX, 21.9 µM (inactive); in the experiment with MDA-MB-435 it was 23.6 µM (inactive); in the experiment on SN12C, 24.7 µM (inactive). Also, the GI50 was 18.7 µM in the experiment with HCT-15; 20.8 µM (inactive) with BT-549; 19.1 µM (inactive) with SF-539; 18 µM (inactive) in the experiment with NCI-H522; 40 µM (inactive) in the experiment with K562; 22.8 µM (inactive) in the experiment with U-251. Moreover, the GI50 in the experiment on UO-31 is 27.2 µM (inactive); in the experiment with RPMI-8226, 23.7 µM (inactive); in the experiment with HCC 2998, 20 µM (inactive); in the experiment on UACC-62 it was 17.1 µM (inactive); with HL-60, 38.1 µM (inactive); with UACC-257, 22.1 µM (inactive). Also, the GI50 was 34.9 µM (inactive) in the experiment on OVCAR-4 and 12.7 µM (inactive) with SK-MEL-5.
